Experimental data from patent US8252559B2, “Methods and systems for selective fluorination of organic molecules” (The California Institute of Technology, priority 2006, dated 2012).

Assay: in vitro
Conditions: PAMPA; for Papp at 0.5 mg/mL: pig, pH 7.4
Method: Effective permeability values (Pe) are calculated by monitoring accumulation of the organic molecule in a cross-membrane compartment. […] M+/M− refers to the fraction of compound that crossed the BBB-mimic membrane as compared to system with no membrane after 16 hour incubation at room temperature. Values are means of three replicates.
Membrane permeability assay. The membrane permeability assays were carried out adapting a described procedure and using 96-well MultiScreen-IP plates from Millipore. Filter plates were rinsed with 70% EtOH and double-distilled water prior to use. BBB-mimic membranes were prepared by coating filter wells with 5 μL porcine brain lipids (PBL, Avanti Polar Lipids) in dodecane (20 mg/mL). Control wells (PBL-free) were primed in the same way but not coated with PBL. Working solutions contained 0.5 mg/mL fluorinated compound in PBS pH 7.4 (5% EtOH). Assembled plates contained 150 μL working solution in the PBL-coated (or PBL-free) well, 300 μL PBS (5% EtOH) in the acceptor well, and were incubated at room temperature and 100% humidity. The change in organic compound concentration in the donor and acceptor wells was monitored over time by HPLC. Membrane permeability values (Pe) were calculated. All measurements were performed in triplicates. The assay was validated by comparing the experimental Pe value for caffeine with that reported in the art.
Ibuprofen has recently shown promising activity against amyloidogenic diseases. Anti-amyloidogenic drugs with high brain permeability are intensively sought after. Compounds 15, 16 and 18 were tested in a membrane permeability assay that mimics the composition of the blood-brain barrier (BBB).

Membrane permeability properties / BBB-crossing potential (in words) | Papp at 0.5 mg/mL [×10⁻⁶ cm/s] | SMILES
very good | > 10 | COC(=O)C(C)c1ccc(CC(C)(C)F)cc1 (centres unmarked) [Compound 16, 2-[4-(2-Fluoro-2-methyl-propyl)-phenyl]-propionic acid methyl ester]
excellent | > 10 | COC(=O)C(C)c1ccc(C(F)C(C)(C)F)cc1 (centres unmarked) [Compound 18, 2-[4-(1,2-Difluoro-2-methyl-propyl)-phenyl]-propionic acid methyl ester]
very good | > 10 | COC(=O)C(C)c1ccc(C(F)C(C)C)cc1 (centres unmarked) [Compound 15, 2-[4-(1-Fluoro-2-methyl-propyl)-phenyl]-propionic acid methyl ester]

Continued, compound first:

SMILES | Membrane permeability properties / BBB-crossing potential (in words) | Papp at 0.5 mg/mL [×10⁻⁶ cm/s]
COC(=O)C(C)c1ccc(CC(C)C)cc1 (centres unmarked) [Compound 12, 2-(4-Isobutyl-phenyl)-propionic acid methyl ester, reference compound] | modest BBB-crossing potential | –
Cn1c(=O)c2c(ncn2C)n(C)c1=O [Caffeine, reference compound] | – | 1.24
